Experimental data from publication PMC9465710, “Identification of a BAZ2A-Bromodomain Hit Compound by Fragment Growing” (ACS Medicinal Chemistry Letters, 2022).

Biological target: T1, BAZ2A bromodomain (Homo sapiens, UniProt Q9UIF9)
T1 construct: made in house
T1 sequence (Q9UIF9 1793-1897 limits assumed): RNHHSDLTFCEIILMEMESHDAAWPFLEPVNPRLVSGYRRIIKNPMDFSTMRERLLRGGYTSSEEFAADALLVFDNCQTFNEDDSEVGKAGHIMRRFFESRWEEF
Assay: AlphaScreen competition binding assay (BAZ2A bromodomain binding to acetylated peptide)
Settings: for IC50: AlphaScreen dose-response; for remaining binding at 500 µM: single dose, compound concentration 500 μM, read-out: % residual BAZ2A activity; for decrease of binding of BAZ2A bromodomain to the acetylated peptide: tested at 500 μM, single dose in duplicate
Method: The 36 selected molecules were tested by AlphaScreen at single doses in duplicate. Six molecules (compounds 8, 9, 11, 14, 18, and 25) decreased binding of BAZ2A bromodomain to the acetylated peptide by at least 50% when tested at 500 μM. […]
AlphaScreen assay was conducted as detailed in [11]. […]

SMILES	IC50 [µM]	further results
NC1CCCN(S(=O)(=O)c2cccc3cnccc23)C1 (stereo not shown) [Compound 8]	> 200	remaining binding at 500 µM: 49 ± 7%; decrease of binding of BAZ2A bromodomain to the acetylated peptide: at least 50%
O=S(=O)(NC1CCNC1)c1cccc2cnccc12 (stereo not shown) [Compound 9]	> 200	remaining binding at 500 µM: 44 ± 3%; decrease of binding of BAZ2A bromodomain to the acetylated peptide: at least 50%
C/N=C(/NC)NC1CCN(c2cc(OC)cc(OC)c2)CC1 [Compound 11]	> 200	remaining binding at 500 µM: 48 ± 5%; decrease of binding of BAZ2A bromodomain to the acetylated peptide: at least 50%
NC(=O)c1cc(OC2CCNCC2)ccn1 [Compound 13]	–	remaining binding at 500 µM: 75 ± 2%
NCc1ccc(N2CCNC(=O)C2)cc1 [Compound 14]	> 200	remaining binding at 500 µM: 32 ± 4%; decrease of binding of BAZ2A bromodomain to the acetylated peptide: at least 50%
CC(=O)N1CCN(c2ccc(NC(=N)N)cc2)CC1 [Compound 18]	> 200	remaining binding at 500 µM: 37 ± 4%; decrease of binding of BAZ2A bromodomain to the acetylated peptide: at least 50%
NC1CCN(C(=O)c2ccc(=O)[nH]c2)CC1 [Compound 36]	–	remaining binding at 500 µM: 71 ± 3%
CCc1c(-c2csc(N)n2)[nH]c(C)c1C(C)=O [Compound 43]	76.2 ± 8.6	–
CCc1c(-c2csc(CCCN)n2)[nH]c(C)c1C(C)=O [Compound 44]	57.9 ± 6	–
CCc1c(-c2csc(CCNC)n2)[nH]c(C)c1C(C)=O [Compound 45]	109 ± 12.3	–
CCc1c(-c2csc(C3CCNCC3)n2)[nH]c(C)c1C(C)=O [Compound 48]	94.6 ± 11.7	–
CCc1c(-c2csc(C3CCCNC3)n2)[nH]c(C)c1C(C)=O (stereo not shown) [Compound 49]	47 ± 5	–
CCc1c(-c2csc(C3CCCCN3)n2)[nH]c(C)c1C(C)=O (stereo not shown) [Compound 50]	76.8 ± 6.4	–
CCc1c(-c2csc(C3COCCN3)n2)[nH]c(C)c1C(C)=O (stereo not shown) [Compound 52]	93.5 ± 9.7	–
CCc1c(-c2csc(C3CCNC3)n2)[nH]c(C)c1C(C)=O (stereo not shown) [Compound 53]	54 ± 0.2	–
CCc1c(-c2csc(C3(NC(C)=O)CCNC3)n2)[nH]c(C)c1C(C)=O (stereo not shown) [Compound 54]	61.3 ± 10.6	–
CCc1c(-c2csc(C3CCN(C(C)=O)C3)n2)[nH]c(C)c1C(C)=O (stereo not shown) [Compound 55]	114 ± 22.1	–
CCc1c(-c2csc(C3CCN(C(N)=O)C3)n2)[nH]c(C)c1C(C)=O (stereo not shown) [Compound 56]	> 100	–

SMILES	IC50 [µM]	further results
CCc1c(-c2csc(C3CCCN3C(C)=O)n2)[nH]c(C)c1C(C)=O (stereo not shown) [Compound 57]	93.2 ± 10.1	–
CCc1c(-c2csc(C3CCCN3C(N)=O)n2)[nH]c(C)c1C(C)=O (stereo not shown) [Compound 58]	> 100	–
CCc1c(-c2csc(CN3CCOCC3)n2)[nH]c(C)c1C(C)=O [Compound 59]	74.2 ± 9.1	–
CCc1c(-c2csc(Cc3ccc(N)cc3)n2)[nH]c(C)c1C(C)=O [Compound 60]	> 100	–
CCc1c(-c2csc(CN3CCNCC3)n2)[nH]c(C)c1C(C)=O [Compound 61]	54 ± 0.2	–
CCc1c(-c2csc(NC3CCNCC3)n2)[nH]c(C)c1C(C)=O [Compound 62]	53.9 ± 0.2	–
CCc1c(-c2csc(CN3CCC(N)CC3)n2)[nH]c(C)c1C(C)=O [Compound 63]	60.5 ± 9.4	–
CCc1c(-c2csc(CN3CCN(C(C)=O)CC3)n2)[nH]c(C)c1C(C)=O [Compound 64]	75.7 ± 9.2	–
CC(=O)c1c(C)[nH]c(-c2csc(CN3C(=O)CNC3=O)n2)c1C [Compound 65]	54 ± 0.3	–
CCc1c(-c2csc(C3(N)CCCC3)n2)[nH]c(C)c1C(C)=O [Compound 66]	99.7 ± 10.9	–
Cc1[nH]c(-c2csc(-c3cc[nH]n3)n2)c2c1C(=O)CCC2 [Compound 69]	74.3 ± 4.7	–
CCc1c(-c2csc(-c3cnc[nH]3)n2)[nH]c(C)c1C(C)=O [Compound 72]	54.6 ± 7.1	–
CCc1c(-c2csc(N3CCNCC3)n2)[nH]c(C)c1C(N)=O [Compound 74]	> 100	–
Cc1[nH]c(-c2csc(N3CCNCC3)n2)c2c1C(=O)CCC2(C)C [Compound 82]	44.6 ± 5.6	–
CCc1c(-c2csc(N3CCN(Cc4cc5n(n4)CCC5)CC3)n2)[nH]c(C)c1C(C)=O [Compound 86]	> 100	–
CCc1c(-c2csc(N3CCN(CC4CCN(CC)CC4)CC3)n2)[nH]c(C)c1C(C)=O [Compound 87]	46.6 ± 2.5	–
CCc1c(-c2csc(N3CCN(Cc4conc4COC)CC3)n2)[nH]c(C)c1C(C)=O [Compound 96]	85.1 ± 6.8	–
CCc1c(-c2csc(N3CCN(Cc4ccnn4CC(C)C)CC3)n2)[nH]c(C)c1C(C)=O [Compound 97]	49.3 ± 5.7	–

Second part, led by results:

IC50 [µM]	SMILES	further results
33.2 ± 0.3	CCc1c(-c2csc(N=C(N)N)n2)[nH]c(C)c1C(C)=O [Compound 25]	ligand efficiency (LE): 0.31 kcal/mol per heavy atom; lipophilic ligand efficiency (LLE): 2.4; remaining binding at 500 µM: 5 ± 0.6%; decrease of binding of BAZ2A bromodomain to the acetylated peptide: at least 50%
33.3 ± 0.4	CCc1c(-c2csc(N3CCNCC3)n2)[nH]c(C)c1C(C)=O [Compound 47]	ligand efficiency (LE): 0.29 kcal/mol per heavy atom; lipophilic ligand efficiency (LLE): 1.9
38.9 ± 2	CC(=O)c1c(C)[nH]c(-c2csc(N3CCNCC3)n2)c1CCC(F)(F)F [Compound 77]	–
40.1 ± 3.4	CC(=O)c1c(C)[nH]c(-c2csc(N3CCNCC3)n2)c1C1CCCC1 [Compound 78]	–
12.5 ± 0.4	CC(=O)c1c(C)[nH]c(-c2csc(N3CCNCC3)n2)c1CCC(C)C [Compound 79]	–
11.4 ± 0.3	Cc1[nH]c(-c2csc(N3CCNCC3)n2)c2c1C(=O)CCC2 [Compound 80]	–
11.8 ± 0.3	Cc1[nH]c(-c2csc(N3CCNCC3)n2)c2c1C(=O)CC(C)(C)C2 [Compound 81]	–
11 ± 0.2	Cc1[nH]c(-c2csc(NC(=N)N)n2)c2c1C(=O)CCC2 [Compound 83]	–
29.2 ± 0.3	Cc1[nH]c(-c2csc(NC(=N)N)n2)c2c1C(=O)CC(C)(C)C2 [Compound 84]	–
42.9 ± 4.6	CCc1c(-c2csc(N3CCN(Cc4cn(CC(N)=O)nn4)CC3)n2)[nH]c(C)c1C(C)=O [Compound 88]	–
13.1 ± 0.9	CCc1c(-c2csc(N3CCN(Cc4n[nH]cc4C)CC3)n2)[nH]c(C)c1C(C)=O [Compound 92]	–
12.9 ± 2	CCc1c(-c2csc(N3CCN(Cc4c[nH]c5ncncc45)CC3)n2)[nH]c(C)c1C(C)=O [Compound 95]	–
12.6 ± 1.4	Cc1c[nH]nc1CN1CCN(c2nc(-c3[nH]c(C)c4c3CCCC4=O)cs2)CC1 [Compound 98]	–
10.9 ± 0.2	Cc1[nH]c(-c2csc(N3CCN(Cc4c[nH]c5ncncc45)CC3)n2)c2c1C(=O)CCC2 [Compound 99]	–
36.5 ± 4.1	CCc1c(-c2csc(N3CCNCC3C(=O)NC3(c4ncccc4F)CC3)n2)[nH]c(C)c1C(C)=O (stereo not shown) [Compound 100]	–
10.6 ± 0.2	CCc1c(-c2csc(N3CCNCC3C(=O)NC3(Cc4ccccc4Br)CC3)n2)[nH]c(C)c1C(C)=O (stereo not shown) [Compound 102]	–
33.2 ± 0.3	CCc1c(-c2csc(N3CCNCC3C(=O)NCCc3cc4ccccc4[nH]3)n2)[nH]c(C)c1C(C)=O (stereo not shown) [Compound 105]	–
14.1 ± 0.2	CCc1c(-c2csc(N3CCNCC3C(=O)NCC(F)(F)F)n2)[nH]c(C)c1C(C)=O (stereo not shown) [Compound 107]	–
35.1 ± 0.2	CCc1c(-c2csc(N3CCNCC3C(=O)NCC(C)(C)CC)n2)[nH]c(C)c1C(C)=O (stereo not shown) [Compound 108]	–
31.3 ± 0.7	CCc1c(-c2csc(N3CCNCC3C(=O)NCCCCO)n2)[nH]c(C)c1C(C)=O (stereo not shown) [Compound 109]	–
22 ± 2.3	CCc1c(-c2csc(N3CCNCC3C(=O)NCC(N)=O)n2)[nH]c(C)c1C(C)=O (stereo not shown) [Compound 110]	–
